Assay results: patent publication US12156523B2 (priority 2017, dated 2024)

Key:
Type in all cases: in vivo
Pyricularia oryzae [1] = test: whole plant or invertebrate; settings: soil, read-out: Control value (number of lesions at the second leaf)
Pyricularia oryzae [2] = test: whole plant or invertebrate; settings: foliar, read-out: Control value (number of lesions at the second leaf)
[3] = test system: cucumber bacterial spot disease; test: Activity against cucumber bacterial spot disease (Example 17); settings: cucumber cv. Natsusuzumi; wettable powder diluted 6666-fold, 20 mL per pot absorbed in the soil; 28 days after settled planting
Procedure: Wettable powders of the example compound 1-134 were prepared in accordance with the below-mentioned Preparation Example 1. The wettable powders were diluted to 6666-fold with water, and then 20 mL of the diluted solution per pot was applied to cucumber (cultivar: Natsusuzumi) cultivated to the third leaf stage in pots by making the diluted solution to be absorbed in the soil, and then the cucumber was subjected to settled planting. 28 days after the settled planting, the number of lesions formed at the 11th true leaves to the 20th true leaves were counted. The control value was calculated from the obtained number of lesions in accordance with the below-mentioned mathematical formula. Control value=((the number of lesions at untreated plants −the number of lesions at treated plants)/the number of lesions at untreated plants)×100

wheat brown rust = test: Activity against wheat brown rust (Example 14); settings: wettable powder (Preparation Example 1) diluted 1000-fold, sprayed twice at 1 L/m^2, examined approx. 4 weeks after second spraying
Procedure: Wettable powders of the example compound 1-135 were prepared in accordance with the below-mentioned Preparation Example 1, followed by diluting the wettable powders to 1000-fold with water to prepare spraying liquids. The prepared spraying liquid was sprayed onto wheat twice at the blooming stage and 10 days prior to the blooming stage at a liquid volume of 1 L/m^2. The lesions on the flag leaf were examined in accordance with the below-mentioned indexes approximately 4 weeks after the second spraying application. The severity was calculated based on the indexes, and the control value was calculated from the obtained severity in accordance with the below-mentioned mathematical formula.
0: No lesions were observed.
1: 1 to 3 lesions were observed.
2: 4 to 10 lesions were observed.
3: 11 to 20 lesions were observed.
4: 21 or more lesions were observed, and the area of lesions was less than half of the leaf surface.
5: 21 or more lesions were confirmed, and the area of lesions was half or more of the leaf surface. Control value=((the severity at untreated plants −the severity at treated plants)/the severity at untreated plants)×100

Structure (SMILES) | pest or weed control at 10 µg/mL (Pyricularia oryzae [1]) | pest or weed control at 25 ppm (Pyricularia oryzae [2]) | pest or weed control at 200 ppm (Pyricularia oryzae [2]) | Control value (number of lesions at 11th to 20th true leaves) [3] | Control value (severity on the flag leaf) (wheat brown rust)
CC(C)Oc1cccc(NC(=O)c2cc(F)nc(F)c2)c1 [Example 1-134] | ≥ 80% | ≥ 80% | ≥ 80% | ≥ 60 | 
COc1cccc(NC(=O)c2cc(F)nc(F)c2)c1 [Example 1-135] | ≥ 80% | ≥ 80% | ≥ 80% |  | ≥ 50
